Results taken from patent publication US4800191A, “LHRH antagonists” (priority 1987, dated 1989).
Several values for one entry are separate records, joined by “and”; a condition that tells them apart may be missing. Equal entries are not always repeated. *1 amine or outer side, *2 acyl side, *3 side chain or, on linkers, in order; H or OH if unused. Where a SMILES comes first, the peptide text is derived from it. Side-chain parts run from the residue outwards. [ ]: non-standard residue; d: D form. dPhe(4-Cl) = N[C@H](Cc1ccc(Cl)cc1)C(=O)O; d2Nal = N[C@H](Cc1ccc2ccccc2c1)C(=O)O; d(hCit) = NC(=O)NCCCC[C@@H](N)C(=O)O; dCit = NC(=O)NCCC[C@@H](N)C(=O)O; dOrn = NCCC[C@@H](N)C(=O)O; CO = O=C([*:1])[*:2]

Tested on: rats
Assay: edematogenic test of Schmidt, et al.
Format: in vivo, rat
Conditions: 1.5 mg/kg s.c. once a day on two consecutive days; for 1st Day FR (full responders: facial edema with edematous extremities), rats / 1st Day PR (partial responders: edema of the nasal and paranasal area), rats / 1st Day NR (no apparent reaction), rats: day 1; for 1st Day NR (no apparent reaction), rats: observed five hours each day; for 2nd Day FR (full responders: facial edema with edematous extremities), rats / 2nd Day NR (no apparent reaction), rats / 2nd Day PR (partial responders: edema of the nasal and paranasal area), rats: day 2
Protocol: In the edematogenic test of Schmidt, et al. (Contraception, 29, 283-289, 1984), however, a marked difference can be found between the control peptides and the peptides of the present invention. The control peptides produce edema of the face and extremities when administered subcutaneously in rats at doses of 0.75 or 1.25 mg/kg. No such reaction can be observed with the peptides of the present invention when given at a subcutaneous dose of 1.5 mg/kg.
In the tests as run the rats were assigned to three groups of five rats per group per compound tested. Comparison with made with a known prior art compound designated ORG 30276 namely (N-Ac-D-p-Cl-Phe^1,2, D-Trp^3, D-Arg^6, D-Ala^10)-LHRH. The groups were injected subcuntaneously once a day on two consecutive days with the LHRH antagonists at a dose level of 1.5 mg/kg. One control group was injected with diluent only. The rats were observed during five hours each day. Reactions of the rats were classified as follows: NR no apparent reaction, PR partial responders: edema of the nasal and paranasal area, FR full responders: facial edema with edematous extremities.

Row | Compound | 1st Day FR (full responders: facial edema with edematous extremities), rats | 1st Day PR (partial responders: edema of the nasal and paranasal area), rats | 1st Day NR (no apparent reaction), rats | 2nd Day FR (full responders: facial edema with edematous extremities), rats | 2nd Day NR (no apparent reaction), rats | 2nd Day PR (partial responders: edema of the nasal and paranasal area), rats
1 | CC(=O)N[C@H](Cc1ccc2ccccc2c1)C(=O)N[C@H](Cc1ccc(Cl)cc1)C(=O)N[C@H](Cc1c[nH]c2ccccc12)C(=O)N[C@@H](CO)C(=O)N[C@@H](Cc1ccc(O)cc1)C(=O)N[C@H](CCCNC(N)=O)C(=O)N[C@@H](CC(C)C)C(=O)N[C@@H](CCCNC(=N)N)C(=O)N1CCC[C@H]1C(=O)N[C@H](C)C(N)=O [EX III, Ac-D-Nal(2)-D-Phe(4-Cl)-D-Trp-Ser-Tyr-D-Cit-Leu-Arg-Pro-D-Ala-NH^2] (Ac-[d2Nal][dPhe(4-Cl)][dW]SY[dCit]LRP[dA]-NH2) | 0 | 0 | 8 | – | – | –
2 | CCNC(=O)NCCC[C@@H](NC(=O)[C@H](Cc1ccc(O)cc1)NC(=O)[C@H](CO)NC(=O)[C@@H](Cc1c[nH]c2ccccc12)NC(=O)[C@@H](Cc1ccc(Cl)cc1)NC(=O)[C@@H](Cc1ccc2ccccc2c1)NC(C)=O)C(=O)N[C@@H](CC(C)C)C(=O)N[C@@H](CCCNC(=N)N)C(=O)N1CCC[C@H]1C(=O)N[C@H](C)C(N)=O [EX IV, Ac-D-Nal(2)-D-Phe(4-Cl)-D-Trp-Ser-Tyr-D-Cit(Et)-Leu-Arg-Pro-D-Ala-NH2] (Ac-[d2Nal][dPhe(4-Cl)][dW]SY[dOrn]([CO-NHEt])LRP[dA]-NH2) | 0 | 0 | 9 | 0 | 9 | 0
3 | CC(=O)N[C@H](Cc1ccc(Cl)cc1)C(=O)N[C@H](Cc1ccc(Cl)cc1)C(=O)N[C@H](Cc1c[nH]c2ccccc12)C(=O)N[C@@H](CO)C(=O)N[C@@H](Cc1ccc(O)cc1)C(=O)N[C@H](CCCCNC(N)=O)C(=O)N[C@@H](CC(C)C)C(=O)N[C@@H](CCCNC(=N)N)C(=O)N1CCC[C@H]1C(=O)N[C@H](C)C(N)=O [EX V, Ac-D-Phe(4-Cl)-D-Phe(4-Cl)-D-Trp-Ser-Tyr-D-Hci-Leu-Arg-Pro-D-Ala-NH2] (Ac-[dPhe(4-Cl)][dPhe(4-Cl)][dW]SY[d(hCit)]LRP[dA]-NH2) | 0 | 0 | 9 | 0 | 8 | 1
4 | CC(=O)N[C@H](Cc1ccc(Cl)cc1)C(=O)N[C@H](Cc1ccc(Cl)cc1)C(=O)N[C@H](Cc1c[nH]c2ccccc12)C(=O)N[C@@H](CO)C(=O)N[C@@H](Cc1ccc(O)cc1)C(=O)N[C@H](CCCNC(=N)N)C(=O)N[C@@H](CC(C)C)C(=O)N[C@@H](CCCNC(=N)N)C(=O)N1CCC[C@H]1C(=O)N[C@H](C)C(N)=O [ORG 30276, (N-Ac-D-p-Cl-Phe^1,2, D-Trp^3, D-Arg^6, D-Ala^10)-LHRH, reference compound] (Ac-[dPhe(4-Cl)][dPhe(4-Cl)][dW]SY[dR]LRP[dA]-NH2) | 0 | 5 and 3 | – | 6 and 3 | – | 2 and 1
5 | Ac-[d2Nal][dPhe(4-Cl)][dW]SY[d(hCit)]RP[dA]-NH2 [EX I] | 0 | 0 | 8 | 0 | 8 | 0
